From BindingDB's records for doi:10.1016/S0960-894X(96)00247-8 (1996)

What was measured:
[1] = target: Glutamate-cysteine ligase gshA (Escherichia coli) (UniProt P0A6W9); assay: Tested for inhibition of Escherichia coli gamma-glutamylcysteine synthetase at a concentration of 5.1 uM
[2] = target: Glutamate-cysteine ligase gshA (Escherichia coli) (UniProt P0A6W9); assay: Tested for inhibition of Escherichia coli gamma-glutamylcysteine synthetase at a concentration of 5.7 uM

Chain of Glutamate-cysteine ligase gshA (Escherichia coli) (P0A6W9 whole entry, looked up): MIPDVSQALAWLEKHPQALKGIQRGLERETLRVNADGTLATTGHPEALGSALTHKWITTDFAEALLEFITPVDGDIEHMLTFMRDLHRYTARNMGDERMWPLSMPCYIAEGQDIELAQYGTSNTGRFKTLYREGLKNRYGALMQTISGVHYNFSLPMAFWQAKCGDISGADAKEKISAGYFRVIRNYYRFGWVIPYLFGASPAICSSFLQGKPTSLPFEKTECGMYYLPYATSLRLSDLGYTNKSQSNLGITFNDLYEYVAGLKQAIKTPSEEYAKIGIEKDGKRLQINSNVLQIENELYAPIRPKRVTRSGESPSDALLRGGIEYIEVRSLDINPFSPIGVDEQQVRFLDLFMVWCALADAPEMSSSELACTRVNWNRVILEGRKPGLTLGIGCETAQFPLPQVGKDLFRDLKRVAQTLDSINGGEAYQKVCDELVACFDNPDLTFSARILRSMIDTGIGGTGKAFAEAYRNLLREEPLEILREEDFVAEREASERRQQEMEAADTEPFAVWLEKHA

| Ki [1] | Ki [2] | Structure (SMILES) |
| --- | --- | --- |
| 49.3 µM |  | CCCCS(=N)(=O)CCC(=N)C(=O)O (configuration not stated) |
|  | 4.95 µM | CCC(CP(=O)(O)CC[C@H](N)C(=O)O)C(=O)O (stereo partly drawn) [(2S)-2-ammonio-4-[(2-carboxylatobutyl)phosphinato]butanoate] |
